This is an account of results in US11186603B2, “Heparan sulfate glycomimetic compounds and their pharmaceutical and cosmeceutical uses” (VICTORIA LINK LIMITED, priority 2017, dated 2021).

Several values for one entry are separate records, joined by “and”; a condition that tells them apart may be missing. Identical values can stand only once. Like-named read-outs stand apart in the source and are kept apart here.

The test system of assay [1] is ND41001 (AD) fibroblast cell line. Description: NPC cholesterol activity: filipin staining, LSO ratio. The following applies: 10 μM, 48 hours. Type of assay: cell-based, human. The source says: (§1) Fibroblast cell lines derived from Alzheimer and Niemann-Pick Type C (NPC) patients and healthy controls were obtained from the […] (Camden, N.J., USA). Cell line GM03123 was derived from a NPC patient with two heterozygous mutations in the NPC1 gene. Cell line GM09503 was used as a healthy control for the NPC cell line. Cell line ND41001 was derived from a patient carrying a Presenilin 1 mutation with familial (early onset) Alzheimer's disease (AD). Cell line ND38530 was used as a healthy control for the AD cell line. Further details of the cell lines are available at the Cornell Cell Repository website (https://catalog.coriell.org/).
(§2) Cell culture work was carried out in sterile conditions in an Email Air Handling Class II Biological Safety Cabinet (AES Environmental Pty LTD, Australia). All cell lines were cultured in DMEM (10313-021, Life Technologies New Zealand) supplemented with 10% fetal calf serum (Thermo Fisher Scientific New Zealand), 1× GlutaMAX™ Supplement (stabilised L-glutamine, Gibco Life Technologies New Zealand), 100 units/mL penicillin and 100 units/mL streptomycin (Life Technologies New Zealand). Cell lines were maintained in or 75 cm^2 flasks (Corning, Invitro Technologies New Zealand) in a humidified incubator (Sanyo Electric Co. Ltd, Japan) at 37° C. and 5% CO2. Experimental cultures were carried out in the same media omitting the antibiotics to avoid any potential interaction with the compound being tested.
(§3) For experiments, cells were seeded at a density of 1.25×10^3 cells/mL in black, 96 well plates (Cell-carrier, Perkin Elmer, Scimed New Zealand) in a volume of 100 μL media and grown for 24 hours before treating. The media was then replaced with fresh media supplemented with the required treatment. Cell lines GM03123 and ND41001 were either left untreated, or treated with either 10 μM or 100 μM of the heparan sulphate compound dissolved in sterile deionised water (dH20), 10 μM suberoylanilide hydroxamic acid (SAHA) dissolved in DMSO, or 0.1% DMSO. The healthy control cell lines GM09503 and ND38530 were left untreated or treated with U18666A dissolved in sterile dH20 at a final concentration of 1 μg/mL. U18666A causes cholesterol accumulation in the cell and is therefore a positive control for the filipin stain. Cells were then grown for 48 hours.
(§4) Before fixing, cells were washed three times with 1× phosphate buffered saline (PBS). From this point all treatments and washes were undertaken on a rotating table at 45 revs per minute. Cells were fixed with 1.5% paraformaldehyde (PFA) in 1×PBS (Thermo Fisher Scientific New Zealand) for 20 minutes. Cells were then washed with 1×PBS for four minutes. This was repeated twice. The cells were then stained for 2 hours with 50 μg/mL Filipin dye (Filipin complex from Streptomyces filipinensis, Sigma Aldrich, Australia) protected from the light. With minimal light exposure, the cells were washed with 1×PBS for four minutes and this was repeated twice. Cells were left in 1×PBS for confocal microscopy. The filipin stained cells were imaged using a Perkin Elmer Opera™ high-throughput spinning disk confocal microscope using 405 nm laser and 20× water immersion objective. Perkin Elmer Acapella™ software was used for image analysis. In NPC cells cholesterol accumulates in organelles with the characteristics of late endosomes or early lysosomes. These can be described as lysosome-like storage organelles (LSO). Analysis of free cholesterol levels in the cells was carried out using a method designed for high throughput confocal images described by Pipalia et al., Automated microscopy screening for compounds that partially revert cholesterol accumulation in Niemann-Pick C cells, J. Lipid Res., 2006, 47(2): 284-301. A low fluorescence threshold was chosen which identified the total area occupied by cells and another higher threshold was chosen to determine the areas of bright filipin staining of cholesterol within the cell. […]

Assay [2] relates to GM03123 (NPC) fibroblast cell line. The assay is described as above. Type of assay: cell-based, human. The conditions noted are these: GM03123 (NPC), 10 μM, 48 hours; LSO ratio treated/untreated x 100.
Excerpt: as §1, §2, §3, §4

In assay [3] the test system is human dermal fibroblast cell line, CRL2071. In words: Production of hyaluronan (ELISA). In kind it is cell-based. The following applies: 72 h; for ng Hyaluronan/1 × 10^6 cells (Mean ± SD): liberated hyaluronan (>6400Da); for Hyaluronan as % of No Treatment Control (Mean ± SD): liberated. As to the method: Cells from the human dermal fibroblast cell line, CRL2071 (passages 12-14), obtained from normal breast skin of a person, were allowed to attach for 6-8 hours before the addition of the test compounds. After 72 h of exposure to the test articles the media was removed, cells counted and the cell-associated fraction extracted. The media and cell-associated fraction were analysed for the concentration of hyaluronan using a Hyaluronan Detection Kit ELISA.
(§5) The test compounds, positive controls and no treatment media were added to the flasks (2.5 ml/flask) and cells were incubated for 72 h before removal of the supernatant. After removal of the supernatant, cell monolayers were trypsinsed with 2.5 ml of 0.025% trypsin/[…] in PBS to each flask. After cell detachment (7-10 min), 1 ml of the cell/trypsin mixture was added to a 20 ml counting vial containing 9 ml of normal saline. The cells were quantitated with a Coulter Counter Z2.
In some treatments cells were found floating. They were collected, counted and subjected to viability testing using 1% trypan blue staining. The remaining 1.5 ml of trypsin/cell mixture was sonicated with a Branson tip-probed sonicator for 1 min, setting 6 before centrifugation at 10,000 rpm for 10 min. The supernatant was removed and used in the hyaluronan ELISA for the quantitation of cell-associated hyaluronan.
(In general: In an ELISA, binding on a coated surface is turned into a signal by an enzyme label.)

Assay [4] shares this test system. Description: Production of collagen type I (ELISA). Type of assay: cell-based. Here is the method:
Cells from the human dermal fibroblast cell line, CRL2071 (passages 12-14), obtained from normal breast skin of a person, were allowed to attach for 6-8 hours before the addition of the test compounds. After 72 h of exposure to the test articles the media was removed, cells counted and the cell-associated fraction extracted. The media and cell-associated fraction were analysed for the concentration of collagen type I using a Chondrex Human type I Collagen Detection Kit ELISA (Cat #6021).
After complete dissolution the solutions were sterile filtered through a […] syringe filter and kept at 4° C. until use. Prior to each experiment dilutions were freshly prepared by diluting to 100 nM, 1 μM or 10 μM in cell-specific media.
as §5
In some treatments cells were found floating. They were collected, counted and subjected to viability testing using 1% trypan blue staining. The remaining 1.5 ml of trypsin/cell mixture was sonicated with a Branson tip-probed sonicator for 1 min, setting 6 before centrifugation at 10,000 rpm for 10 min. The supernatant was removed and used in the collagen ELISA for the quantitation of cell-associated collagen.

The target in assay [5] is T1, cellular tyrosinase, human primary epidermal melanocyte cell line (PCS-200-013) (Homo sapiens, UniProt P14679).
T1 sequence (P14679 19-529): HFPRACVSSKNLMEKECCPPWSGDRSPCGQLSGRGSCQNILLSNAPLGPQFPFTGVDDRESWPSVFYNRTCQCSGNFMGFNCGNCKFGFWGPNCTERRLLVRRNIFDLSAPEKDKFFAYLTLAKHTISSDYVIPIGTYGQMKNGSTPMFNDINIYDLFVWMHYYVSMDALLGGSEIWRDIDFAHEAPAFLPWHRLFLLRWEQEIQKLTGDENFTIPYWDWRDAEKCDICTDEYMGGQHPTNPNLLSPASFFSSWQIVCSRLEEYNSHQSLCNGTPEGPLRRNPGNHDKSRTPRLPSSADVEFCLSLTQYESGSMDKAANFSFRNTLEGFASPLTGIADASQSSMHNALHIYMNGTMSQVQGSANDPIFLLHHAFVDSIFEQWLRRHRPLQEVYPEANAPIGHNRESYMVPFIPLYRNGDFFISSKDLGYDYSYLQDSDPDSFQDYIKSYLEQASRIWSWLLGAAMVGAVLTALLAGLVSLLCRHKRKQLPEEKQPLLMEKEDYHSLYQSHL

The test system of the next assay is testicular hyaluronidase. Description: Inhibition of hyaluronidase (turbidimetric). In kind it is biochemical. Here is the method: The heparanase inhibitors were incubated with testicular hyaluronidase in the presence of hyaluronan and after incubation the amount of hyaluronic acid remaining was quantitated. Hyaluronidase activity was measured according to the method of Tolksdorf [Tolksdorf, S. & McCready, M. H., The turbometric determination of hyaluronidase, The Journal of Laboratory and Clinical Medicine, 1949, 34(1):74-89]. Hyaluronic acid is measured by its ability to form turbidity with an acid albumin solution. […] One unit is based on the change in absorbency (turbidity) at 540 nm of an internal USP standard. All tubes were placed in a boiling water bath for 5 min and then cooled to room temperature. On cooling 9.0 ml of albumin reagent was added and tubes were allowed to stand for 10 min. Readings of absorbance at 540 nm in a Pharmacia Novatec Model II were taken. The A540nm was plotted versus the hyaluronic acid concentration (mg) to form a standard curve.

The mark [6] stands for this setting: cell-associated, 10 μg/ml, 72 h.
The mark [7] stands for this setting: cell-associated, 20 ng/ml, 72 h.

On to `O=C(CCCCCCC(=O)Nc1ccccc1)NO` [SAHA, suberoylanilide hydroxamic acid, reference compound], for which the LSO % is 42.4% in assay [1] and 43.0% in assay [2].

On to `CC1=C(/C=C/C(C)=C/C=C/C(C)=C/CO)C(C)(C)CCC1` [Retinol, reference compound], for which, in assay [3] (5 μg/ml), the “ng Hyaluronan/1 × 10^6 cells (Mean ± SD)” value was 576 ± 0 ng Hyaluronan/1 × 10^6 cells and the “Hyaluronan as % of No Treatment Control (Mean ± SD)” value is given as 1,346 ± 0%.

`C=C[C@@](C)(/C=C/c1ccc(O)cc1)CCC=C(C)C` [Bakuchiol, reference compound]: in assay [4] (cell-associated, 5 μg/ml, 72 h), the “Collagen as % of No Treatment Control (Mean ± SD), Cell-associated” value is 1,085 ± 60% and the “μg collagen (Mean ± SD), Cell-Associated Collagen Type 1” value was 0.28 ± 0.02 µg. Further, in assay [4] (setting [6]), the “Collagen as % of No Treatment Control (Mean ± SD), Cell-associated” value was determined as 600 ± 348% and the “μg collagen (Mean ± SD), Cell-Associated Collagen Type 1” value was determined as 0.29 ± 0.01 µg. In assay [4] (5 μg/ml, 72 h), the “Collagen as % of No Treatment Control (Mean ± SD), Liberated” value turned out to be 43 ± 17% and the “μg collagen (Mean ± SD), Liberated Collagen Type 1” value was 0.02 ± 0.01 µg. Also, in assay [4] (10 μg/ml, 72 h), the “Collagen as % of No Treatment Control (Mean ± SD), Liberated” value is 357 ± 20% and the “μg collagen (Mean ± SD), Liberated Collagen Type 1” value was 0.15 ± 0.01 µg.

Take `O=C(CCCCCCCNC(=O)CCOCC(COCCC(=O)NCCCCCCCC(=O)NCCCCCCOC1OC(COS(=O)(=O)[O-])C(OS(=O)(=O)[O-])C(OS(=O)(=O)[O-])C1OS(=O)(=O)[O-])(COCCC(=O)NCCCCCCCC(=O)NCCCCCCOC1OC(COS(=O)(=O)[O-])C(OS(=O)(=O)[O-])C(OS(=O)(=O)[O-])C1OS(=O)(=O)[O-])COCCC(=O)NCCCCCCCC(=O)NCCCCCCOC1OC(COS(=O)(=O)[O-])C(OS(=O)(=O)[O-])C(OS(=O)(=O)[O-])C1OS(=O)(=O)[O-])NCCCCCCOC1OC(COS(=O)(=O)[O-])C(OS(=O)(=O)[O-])C(OS(=O)(=O)[O-])C1OS(=O)(=O)[O-].[Na+].[Na+].[Na+].[Na+].[Na+].[Na+].[Na+].[Na+].[Na+].[Na+].[Na+].[Na+].[Na+].[Na+].[Na+].[Na+]` (centres unmarked) [Compound 17d]: the “inhibitory effect on tyrosinase activity (in words)” value in assay [5] was “significant inhibitory effect on tyrosinase activity”. In addition, the figures for the “Tyrosinase inhibition as a % of the "No Treatment" control (Mean ± SD)” value in assay [5] (0.1 µM), in assay [5] (1 μM) and in assay [5] (10 μM) were 0 ± 0%, 0 ± 0% and 44 ± 2%, respectively. In addition, the “Hyaluronidase inhibition as a % of the "No Treatment" control (Mean ± SD)” value in the assay with testicular hyaluronidase (100 nM) amounted to 0 ± 0%; with testicular hyaluronidase (1 μM) it was 0 ± 0%; in the assay with testicular hyaluronidase (10 μM) it was 23 ± 1%. The “inhibition of testicular hyaluronidase (in words)” value with testicular hyaluronidase (summary of Example 11) was “effective inhibitors of testicular hyaluronidase”. Further, the “Collagen as % of No Treatment Control (Mean ± SD), Cell-associated” value in assay [4] is 3,076 ± 803% and 5,116 ± 231%. Besides, the “μg collagen (Mean ± SD), Cell-Associated Collagen Type 1” value in assay [4] was 1.32 ± 0.35 µg and 2.20 ± 0.10 µg.

In the case of “TGF-β1: Transforming growth Factor β1, Sigma Aldrich, positive control”, in assay [4] (setting [7]), the “Collagen as % of No Treatment Control (Mean ± SD), Cell-associated” value came to 719 ± 57% and the “μg collagen (Mean ± SD), Cell-Associated Collagen Type 1” value worked out at 0.31 ± 0.02 µg. Besides, in assay [4] (20 ng/ml, 72 h), the “Collagen as % of No Treatment Control (Mean ± SD), Liberated” value is on record as 2,852 ± 285% and the “μg collagen (Mean ± SD), Liberated Collagen Type 1” value worked out at 1.23 ± 0.12 µg. In addition, in assay [3] (20 ng/ml), the “ng Hyaluronan/1 × 10^6 cells (Mean ± SD)” value was 507 ± 68 ng Hyaluronan/1 × 10^6 cells and the “Hyaluronan as % of No Treatment Control (Mean ± SD)” value is recorded as 1,186 ± 159%.

B1: TGF-β2: Transforming growth Factor β2, Sigma Aldrich, positive control (protein, UniProt P61812 303-414, looked up)
Transforming growth factor …: ALDAAYCFRNVQDNCCLRPLYIDFKRDLGWKWIHEPKGYNANFCAGACPYLWSSDTQHSRVLSLYNTINPEASASPCCVSQDLEPLTILYYIGKTPKIEQLSNMIVKSCKCS
For B1, in assay [4] (setting [7]), the “Collagen as % of No Treatment Control (Mean ± SD), Cell-associated” value amounted to 77 ± 9% and the “μg collagen (Mean ± SD), Cell-Associated Collagen Type 1” value came out at 0.03 ± 0.00 µg. In assay [4] (20 ng/ml, 72 h), the “Collagen as % of No Treatment Control (Mean ± SD), Liberated” value was 446 ± 73% and the “μg collagen (Mean ± SD), Liberated Collagen Type 1” value turned out to be 0.19 ± 0.03 µg.
